Broadly, the Kd is the free concentration of one partner at which half of the binding sites on the other are occupied at equilibrium, for simple one-to-one binding. Higher therefore signals a looser complex.

Consider 7 compounds from publication PMC4159853 (2014).

In assay [1] the test system is R12.28 (DNA, aptamer) TGTACCGTCTGAGCGATTCGTACCATTAGTGGGTGCTCCTTACCTGATGGTCATCTAGCCAGTCAGTGTTAAGGAGTGC
Briefly: fluorescence saturation bead-based binding assay. The following applies: 100 mM NaCl, 2 mM MgCl2; immobilised compound; 20 mM Tris-HCl, 10% methanol; reported as Kd for atrazine; some non-specific bead binding.

The subject of assay [2] is R12.23 (DNA, aptamer) TGTACCGTCTGAGCGATTCGTACGAACGGCTTTGTACTGTTTGCACTGGCGGATTTAGCCAGTCAGTGTTAAGGAGTGC
Briefly: fluorescence saturation bead-based binding assay. The following applies: 100 mM NaCl, 2 mM MgCl2; immobilised compound; 20 mM Tris-HCl, 10% methanol; reported by authors as Kd for atrazine.

For assay [3], the system named is R12.57 (DNA, aptamer) TGTACCGTCTGAGCGATTCGTACGGATTGGGTTTGCACTTTACCTGCGGTGCATCGCAGCCAGTCAGTGTTAAGGAGTGC
Briefly: fluorescence saturation bead-based binding assay. The following applies: 100 mM NaCl, 2 mM MgCl2; immobilised compound; 20 mM Tris-HCl, 10% methanol; reported as Kd for atrazine; some non-specific bead binding.

Assay [4] has as its system R12.23 (DNA, aptamer) TGTACCGTCTGAGCGATTCGTACGAACGGCTTTGTACTGTTTGCACTGGCGGATTTAGCCAGTCAGTGTTAAGGAGTGC
Briefly: competitive elution of fluorescent ssDNA from target beads. To be noted: 100 mM NaCl, 2 mM MgCl2; 20 mM Tris-HCl, 10% methanol; 100 µM eluent, 5 nM ssDNA; buffer alone 0.15; from immobilised desethyl atrazine.

For assay [5], the system named is 34-base truncation of R12.23 (DNA, aptamer) TACTGTTTGCACTGGCGGATTTAGCCAGTCAGTG
Briefly: bead capture from processed river water, capillary electrophoresis quantification. To be noted: 100 mM NaCl, 2 mM MgCl2; 20 mM Tris-HCl; extract of river water spiked with 40 nM; 37% (1.5 nmol) recovered.

The structures appear in SMILES notation.

For the compound `CC(C)Nc1nc(Cl)nc(NC(=O)CCCCCNC(=O)CCCC[C@@H]2SC[C@@H]3NC(=O)N[C@@H]32)n1`, the Kd in assay [1] came out at 5.10 ± 1.32 nM; in assay [2], 0.62 ± 0.21 nM; in assay [3] it was 20.78 ± 4.74 nM.

Regarding `CC(C)Nc1nc(N)nc(Cl)n1`, the “Normalized Average Fluorescence” value in assay [4] is reported as −0.054 ± 0.44.

`CCC(=O)Nc1ccc(Cl)c(Cl)c1`: in assay [4], the “Normalized Average Fluorescence” value was found to be 0.65 ± 0.13.

As for `CCNc1nc(Cl)nc(NC(C)C)n1`, the “Normalized Average Fluorescence” value in assay [4] came out at 1 ± 0.11. Further, the binding entry in assay [5] was “yes”.

`CCNc1nc(Cl)nc(NCC)n1`: the “Normalized Average Fluorescence” value in assay [4] is given as 0.47 ± 0.14.

As for `Nc1nc(N)nc(Cl)n1`, the “Normalized Average Fluorescence” value in assay [4] came to 0.47 ± 0.10.

In the case of `O=C(O)COc1ccc(Cl)cc1Cl`, in assay [4], the “Normalized Average Fluorescence” value came out at 0.64 ± 0.11.
